Legend:
[1] = Sonesson's thesis 1995; cited from earlier work
[2] = system: synthesis of dopamine in the striatum of the brain; conditions: Sonesson's thesis 1995; cited from earlier work
[3] = biological target: T1, human D3 receptor (Homo sapiens, UniProt P35462); experiment: R-SAT assay D3; format: cell-based; conditions: Table 3, D3
T1 construct: expressed in transfected cells

[4] = biological target: T2, D2 receptors (Homo sapiens, UniProt P14416); experiment: BRET2 functional antagonism of dopamine at D2 (Schild analysis); format: cell-based; design: expressed in transfected cells; host or cells: HEK-293T
T2 sequence (P14416 1-414 isoform P14416-2): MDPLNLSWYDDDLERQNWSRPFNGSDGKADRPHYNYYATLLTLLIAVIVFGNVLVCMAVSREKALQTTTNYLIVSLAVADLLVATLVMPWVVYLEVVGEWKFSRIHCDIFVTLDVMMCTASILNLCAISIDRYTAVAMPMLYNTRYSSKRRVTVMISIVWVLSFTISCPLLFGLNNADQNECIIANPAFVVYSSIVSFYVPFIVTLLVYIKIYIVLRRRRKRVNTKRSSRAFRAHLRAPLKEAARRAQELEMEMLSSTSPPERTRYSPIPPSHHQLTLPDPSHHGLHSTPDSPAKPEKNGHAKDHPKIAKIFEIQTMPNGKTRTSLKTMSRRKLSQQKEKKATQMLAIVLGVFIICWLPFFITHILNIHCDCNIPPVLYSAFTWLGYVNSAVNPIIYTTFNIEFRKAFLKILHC
Protocol: BRET-2 signals were measured using the multiplate reader Mithras 940LB (Berthold Technologies, Bad Wildbad, Germany) and were calculated as the ratio between the Renilla luciferase emission and the GFP2 emission corrected by the background emissions of non-transfected cells.
A Schild plot (B) was constructed using the EC50 values derived from the curves in (A). The Schild plot was fitted using linear regression in GraphPad Prizm.

[5] = biological target: human D4 (variant 4.2) receptor (Homo sapiens, UniProt P21917, DEL265-296); format: cell-based
Chain of human D4 (variant 4.2) receptor (P21917 with tags, fused parts or gaps DEL265-296): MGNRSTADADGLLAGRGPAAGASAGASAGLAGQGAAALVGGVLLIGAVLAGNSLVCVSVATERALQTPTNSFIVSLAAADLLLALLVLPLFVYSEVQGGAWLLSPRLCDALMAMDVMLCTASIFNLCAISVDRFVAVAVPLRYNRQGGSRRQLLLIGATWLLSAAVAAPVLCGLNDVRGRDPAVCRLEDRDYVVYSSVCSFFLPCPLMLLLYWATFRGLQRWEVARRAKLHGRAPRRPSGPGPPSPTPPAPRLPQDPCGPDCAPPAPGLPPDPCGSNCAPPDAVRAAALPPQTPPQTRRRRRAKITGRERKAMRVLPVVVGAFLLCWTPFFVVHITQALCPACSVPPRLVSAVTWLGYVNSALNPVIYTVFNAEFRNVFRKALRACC

[6] = biological target: T2, D2 receptors; experiment: Dissociation rate of dopamine from D2 receptors (off-rate assay); format: binding; conditions: data not shown
[7] = biological target: T3, human 5-HT7 receptor (Homo sapiens, UniProt P34969); experiment: R-SAT assay 5-HT7; format: cell-based; conditions: Table 3, 5-HT7; percent response of reference 5-CT
T3 construct: expressed in transfected cells; host or cells: NIH/3T3
T3 sequence (P34969 whole entry): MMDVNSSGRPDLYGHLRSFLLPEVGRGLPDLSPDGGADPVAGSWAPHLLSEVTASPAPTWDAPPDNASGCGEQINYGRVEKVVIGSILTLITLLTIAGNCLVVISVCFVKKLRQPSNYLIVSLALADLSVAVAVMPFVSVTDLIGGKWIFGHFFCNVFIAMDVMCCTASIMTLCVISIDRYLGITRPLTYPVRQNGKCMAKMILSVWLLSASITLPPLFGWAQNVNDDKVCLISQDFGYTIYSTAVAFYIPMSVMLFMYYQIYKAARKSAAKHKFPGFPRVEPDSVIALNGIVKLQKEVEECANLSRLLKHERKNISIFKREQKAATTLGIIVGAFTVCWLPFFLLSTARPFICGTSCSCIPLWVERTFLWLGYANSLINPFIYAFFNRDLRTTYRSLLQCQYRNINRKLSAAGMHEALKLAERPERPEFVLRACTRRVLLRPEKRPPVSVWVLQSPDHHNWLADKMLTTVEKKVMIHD

[8] = biological target: dopamine D2/D3 receptors; conditions: read-out: Ki, affinity for dopamine D2/D3 receptors; in vitro binding studies, background; cited from earlier work

T1 sequence (P35462 whole entry): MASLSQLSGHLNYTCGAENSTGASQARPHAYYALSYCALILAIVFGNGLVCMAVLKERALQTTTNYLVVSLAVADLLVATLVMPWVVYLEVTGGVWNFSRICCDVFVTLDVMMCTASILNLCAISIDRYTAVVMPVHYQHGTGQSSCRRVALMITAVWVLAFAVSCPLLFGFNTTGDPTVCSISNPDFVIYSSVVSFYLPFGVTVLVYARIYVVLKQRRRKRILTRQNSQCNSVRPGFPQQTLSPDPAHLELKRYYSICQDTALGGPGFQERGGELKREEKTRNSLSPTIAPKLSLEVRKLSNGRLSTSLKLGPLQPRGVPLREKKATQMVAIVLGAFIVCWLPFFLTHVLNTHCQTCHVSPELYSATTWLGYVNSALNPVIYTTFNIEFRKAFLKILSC

SMILES | change in behavioral activity [1] | synthesis of dopamine in the striatum of the brain [2] | EC50 ([3]; negative logarithm of EC50 in molar) [nM] | Eff (%) ([3]; percent response of reference Pergolide) | slope of the Schild analysis ([4]; functional antagonism of dopamine in BRET2 assays) | Kb ([4]; read-out: pKb from the Schild analysis (converted)) [nM] | Eff (%) [5] [%] | effect on dissociation rate of dopamine from D2 receptors [6] | Eff (%) [7] [%] | Ki [8] [nM]
CCCN1CCC[C@H](c2cccc(S(C)(=O)=O)c2)C1 [(+)-OSU6162, (3R)-3-[3-(methylsulfonyl)phenyl]-1-propylpiperidine] | not to induce any change in behavioral activity | weak increase in the synthesis of dopamine in the striatum of the brain | – | – | – | – | – | – | – | –
CCCN1CCC[C@@H](c2cccc(S(C)(=O)=O)c2)C1 [(−)-OSU6162, (3S)-3-[3-(methylsulfonyl)phenyl]-1-propylpiperidine] | – | – | 3980 | 54 | nearly unity | 1260 | 40 | did not significantly alter | 7 | 447

Reference: patent publication US20130197032A1, “[…] COMPOUNDS FOR THE TREATMENT OF NEUROLOGICAL AND […] DISORDERS” (A. CARLSSON RESEARCH AB, priority 2010, published 2013)
